Measured values taken from patent US8410164B2, “Reagent for measurement of active oxygen” (The University of Tokyo, priority 2008, dated 2013).

Experiments:
[1] = test system: HeLa cells; test: Imaging of reactive oxygen species in living HeLa cells after sodium hypochlorite stimulation; type: cell-based; conditions: 1.0 μM loaded for 15 minutes, 500 μM sodium hypochlorite
Protocol: Imaging of reactive oxygen species in living cells was performed by using the compound 5 (APC). The compound 6 (APC-AM, 1.0 μM, 0.1% dimethylformamide (cosolvent)), which corresponds to APC esterified to increase cell membrane permeability, was loaded on the HeLa cells for 15 minutes by addition to the medium of the cells, and then the cells were stimulated with 500 μM sodium hypochlorite.

[2] = test system: HL-60 cells; test: Intracellular retentivity of reaction products of APF and APC-AM in HL-60 cells by FACS; type: cell-based; conditions: 10 μM loaded 60 minutes, 100 μM hydrogen peroxide 15 minutes
Protocol: Intracellular retentivities of the reaction products produced from APF and APC with the reactive oxygen species were compared in a similar manner. APF and APC-AM (10 μM, 1.0% dimethylformamide (cosolvent) for the both) were loaded on the HL-60 cells for 60 minutes by adding them to the medium of the cells, and then the cells were stimulated with 100 μM hydrogen peroxide for 15 minutes. Then, fluorescence intensity was periodically measured (0 minute, 30 minutes, 60 minutes) by FACS. In FIG. 6, the graphs (A) to (C) show the results obtained with APF, and the graphs (D) to (F) show the results obtained with APC-AM. The graphs (A) and (D) show the results obtained immediately after the hydrogen peroxide stimulation, (B) and (E) show the results obtained 30 minutes after the stimulation, and (C) and (F) show the results obtained 60 minutes after the stimulation.

[3] = pKa comparison of calcein and fluorescein; type: physicochemical
[4] = Fluorescence quantum yield (Φf); type: physicochemical
Protocol: (§1) The compound 5 (APC) is a substantially non-fluorescent (Φf=0.007) substance having a moiety that specifically reacts with reactive oxygen species in the molecule. This substance specifically reacts with reactive oxygen species, and thereby becomes calcein to emit fluorescence. The tetracetoxymethyl ester of this calcein and diacetyl ester of fluorescein were taken up by HL-60 cells, and intracellular retentivity of calcein and fluorescein was evaluated.

[5] = test system: HL-60 cells; test: Intracellular retentivity of calcein and fluorescein taken up by HL-60 cells as esters; type: cell-based
Protocol: as §1

SMILES: CC(=O)OCOC(=O)CN(CC(=O)OCOC(C)=O)Cc1c(O)ccc2c1Oc1c(ccc(Oc3ccc([N+](=O)[O-])cc3)c1CN(CC(=O)OCOC(C)=O)CC(=O)OCOC(C)=O)C21OC(=O)c2ccccc21 (centres unmarked) [APC-AM, 3-Hydroxy-4,5-bis[N,N′-di(carboxymethyl)aminomethyl]-6-(4′-nitro)phenoxyfluorescein tetracetoxymethyl ester]
- Fluorescence in HeLa cells after sodium hypochlorite stimulation [1]: Extremely intense fluorescence

SMILES: Nc1ccc(Oc2ccc3c(-c4ccccc4C(=O)O)c4ccc(=O)cc-4oc3c2)cc1 [APF, aminophenylfluorescein]
- Fluorescence intensity by FACS immediately after hydrogen peroxide stimulation ([2]; 0 minute): increase of fluorescence intensity was observed
- Fluorescence intensity by FACS 30 and 60 minutes after stimulation (intracellular retentivity of reaction product) ([2]; 30 and 60 minutes): detection thereof became difficult after 30 minutes

SMILES: O=C(O)CN(CC(=O)O)Cc1cc2c(cc1O)Oc1cc(O)c(CN(CC(=O)O)CC(=O)O)cc1C21OC(=O)c2ccccc21 [calcein]
- pKa [3]: ~5.4
- Fluorescence quantum yield Φf [4]: 0.793
- Fluorescence intensity in the HL-60 cells over time (intracellular retentivity) ([5]; after 60 minutes, loaded as tetracetoxymethyl ester): hardly decreased

SMILES: O=C1OC2(c3ccc(O)cc3Oc3cc(O)ccc32)c2ccccc21 [fluorescein]
- pKa [3]: 6.4
- Fluorescence intensity in the HL-60 cells over time (intracellular retentivity), level remaining ([5]; after 15 minutes, loaded as diacetyl ester, fraction of the starting intensity): 1/10
